pKi: −log10 of the molar value. Read-outs that look alike come from different tables or passages of the source.
Key:
human NK1 receptor = human NK1 receptor (Homo sapiens, UniProt P25103); assay: NK1 receptor binding, [3H]substance P displacement, CHO cell membranes; conditions: for Ki: first value of the cell NK1/NK3, read-out: pKi NK1 (converted); for pKi: first value of the cell pKi NK1/NK3, human NK1 receptor, [3H]substance P
[1] = target: T1, Recombinant human NK3 (hNK3) receptor (Homo sapiens, UniProt P29371); assay: NK3 receptor binding, [3H]SR142801 displacement, membrane preparations; conditions: for Ki: second value of the cell NK1/NK3, read-out: pKi NK3 (converted); for pKi: second value of the cell pKi NK1/NK3, hNK3 receptor, [3H]SR142801
T1 construct: expressed in transfected cells
T1 sequence (P29371 1-465): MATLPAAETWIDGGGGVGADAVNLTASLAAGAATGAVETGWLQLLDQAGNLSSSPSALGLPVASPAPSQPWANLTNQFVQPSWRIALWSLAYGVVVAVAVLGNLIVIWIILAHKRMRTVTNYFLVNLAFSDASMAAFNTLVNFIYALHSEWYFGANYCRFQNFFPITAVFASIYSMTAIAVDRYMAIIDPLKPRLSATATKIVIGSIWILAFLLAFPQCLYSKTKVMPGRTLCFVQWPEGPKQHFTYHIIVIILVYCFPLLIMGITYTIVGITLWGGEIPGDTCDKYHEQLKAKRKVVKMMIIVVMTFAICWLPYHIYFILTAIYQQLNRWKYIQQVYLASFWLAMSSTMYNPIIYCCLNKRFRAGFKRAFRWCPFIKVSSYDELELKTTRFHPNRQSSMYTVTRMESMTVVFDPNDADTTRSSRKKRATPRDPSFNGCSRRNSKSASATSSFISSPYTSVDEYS
Method in brief: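 Room-temperature, 90-min filtration binding assay using about 2.5 μg recombinant receptor membranes per well; separation on polyethyleneimine-treated glass-fibre (GF/C) filters and liquid scintillation read-out, with 10 μM SB222200 for nonspecific binding.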

Chain of human NK1 receptor (P25103 whole entry): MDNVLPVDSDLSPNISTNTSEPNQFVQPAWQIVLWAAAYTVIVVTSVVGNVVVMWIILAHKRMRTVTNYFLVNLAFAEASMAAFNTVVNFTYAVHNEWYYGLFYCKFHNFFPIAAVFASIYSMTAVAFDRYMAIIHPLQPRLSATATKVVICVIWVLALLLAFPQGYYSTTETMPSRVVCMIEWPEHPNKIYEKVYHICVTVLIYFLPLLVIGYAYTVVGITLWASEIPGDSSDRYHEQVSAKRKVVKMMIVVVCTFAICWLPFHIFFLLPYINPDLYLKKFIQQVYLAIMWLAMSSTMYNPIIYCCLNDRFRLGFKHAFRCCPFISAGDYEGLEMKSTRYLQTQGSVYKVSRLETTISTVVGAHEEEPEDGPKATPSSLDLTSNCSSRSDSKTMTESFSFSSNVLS

CN(C(=O)C(C)(C)c1cc(C(F)(F)F)cc(C(F)(F)F)c1)c1cnc(N2CC[C@H](O)[C@H]2CO)cc1-c1cccc(Cl)c1 [Example 269, (2R,3S)-2-(3,5-Bis-trifluoromethyl-phenyl)-N-[4-(3-chloro-phenyl)-6-(3-hydroxy-2-hydroxymethyl-pyrrolidin-1-yl)-pyridin-3-yl]-N-methyl-isobutyramide]
Ki (human NK1 receptor): 1.86 nM
Ki [1]: 3.55 nM

Cc1cc(F)ccc1-c1cc(N2C[C@H](O)C[C@H]2CO)ncc1N(C)C(=O)C(C)(C)c1cc(F)cc(F)c1 [Example 29, (2S,4R)-2-(3,5-Difluoro-phenyl)-N-[4-(4-fluoro-2-methyl-phenyl)-6-(4-hydroxy-2-hydroxymethyl-pyrrolidin-1-yl)-pyridin-3-yl]-N-methyl-isobutyramide]
pKi (human NK1 receptor): 8.81
pKi [1]: 8.45

CN(C(=O)C(C)(C)c1cc(C(F)(F)F)cc(C(F)(F)F)c1)c1cnc(N2C[C@H](O)C[C@H]2CO)cc1-c1cc(F)cc(F)c1 [Example 208, (2S,4R)-2-(3,5-Bis-trifluoromethyl-phenyl)-N-[4-(3,5-difluoro-phenyl)-6-(4-hydroxy-2-hydroxymethyl-pyrrolidin-1-yl)-pyridin-3-yl]-N-methyl-isobutyramide]
Ki (human NK1 receptor): 1.35 nM
Ki [1]: 6.17 nM

CN(C(=O)C(C)(C)c1cc(C(F)(F)F)cc(C(F)(F)F)c1)c1cnc(N2CCC(N)CC2)cc1-c1ccccc1Cl [Example 112, N-[4-Amino-4′-(2-chloro-phenyl)-3,4,5,6-tetrahydro-2H-[1,2′]bipyridinyl-5′-yl]-2-(3,5-bis-trifluoromethyl-phenyl)-N-methyl-isobutyramide]
pKi (human NK1 receptor): 9.25
pKi [1]: 8.26

CN(C(=O)C(C)(C)c1cc(C(F)(F)F)cc(C(F)(F)F)c1)c1cnc(N2CCCC[C@@H]2CO)cc1-c1ccccc1Cl [Example 160, (R)-2-(3,5-Bis-trifluoromethyl-phenyl)-N-[4′-(2-chloro-phenyl)-2-hydroxymethyl-3,4,5,6-tetrahydro-2H-[1,2′]bipyridinyl-5′-yl]-N-methyl-isobutyramide]
pKi (human NK1 receptor): 8.69
pKi [1]: 7.52

Cc1cc(F)ccc1-c1cc(N2CCOC[C@H]2CO)ncc1N(C)C(=O)C(C)(C)c1cc(C(F)(F)F)cc(C(F)(F)F)c1 [Example 174, (R)-2-(3,5-Bis-trifluoromethyl-phenyl)-N-[4-(4-fluoro-2-methyl-phenyl)-6-(3-hydroxymethyl-morpholin-4-yl)-pyridin-3-yl]-N-methyl-isobutyramide]
pKi (human NK1 receptor): 8.78
pKi [1]: 8.59

CN(C(=O)C(C)(C)c1cc(C(F)(F)F)cc(C(F)(F)F)c1)c1cnc(N2CC(O)C2)cc1-c1ccccc1Cl [Example 98, 2-(3,5-Bis-trifluoromethyl-phenyl)-N-[4-(2-chloro-phenyl)-6-(3-hydroxy-azetidin-1-yl)-pyridin-3-yl]-N-methyl-isobutyramide]
pKi (human NK1 receptor): 9.16
pKi [1]: 8.46

Cc1ccc(F)cc1-c1cc(N2C[C@@H](O)C[C@H]2CO)ncc1N(C)C(=O)C(C)(C)c1cc(C(F)(F)F)cc(C(F)(F)F)c1 [Example 250, (2S,4S)-2-(3,5-Bis-trifluoromethyl-phenyl)-N-[4-(5-fluoro-2-methyl-phenyl)-6-(4-hydroxy-2-hydroxymethyl-pyrrolidin-1-yl)-pyridin-3-yl]-N-methyl-isobutyramide]
Ki (human NK1 receptor): 1.95 nM
Ki [1]: 2 nM

Cc1cc(F)ccc1-c1cc(N2C[C@@H](O)C[C@@H]2CO)ncc1N(C)C(=O)C(C)(C)c1cc(C(F)(F)F)cc(C(F)(F)F)c1 [Example 259, (2R,4S)-2-(3,5-Bis-trifluoromethyl-phenyl)-N-[4-(4-fluoro-2-methyl-phenyl)-6-(4-hydroxy-2-hydroxymethyl-pyrrolidin-1-yl)-pyridin-3-yl]-N-methyl-isobutyramide]
Ki (human NK1 receptor): 1.66 nM
Ki [1]: 15.1 nM

Cc1ccccc1-c1cc(N2CC(O)C2)ncc1N(C)C(=O)C(C)(C)c1cc(C(F)(F)F)cc(C(F)(F)F)c1 [Example 163, 2-(3,5-Bis-trifluoromethyl-phenyl)-N-[6-(3-hydroxy-azetidin-1-yl)-4-o-tolyl-pyridin-3-yl]-N-methyl-isobutyramide]
pKi (human NK1 receptor): 8.74
pKi [1]: 7.55
